Numbered stars: 1 amine (or outer) side, 2 acyl side, 3 side chain; on linkers, the order of the positions; unused ones are H or OH. Bridge positions count the residues as written; N and C are the ends. Peptide text beside a SMILES is read from it. CH2 = C([*:1])[*:2]
Each molecule was assayed against Type-2 angiotensin II receptor (Sus scrofa) (assay: Binding affinity for Angiotensin II receptor type 2 using [125I]- Ang II in pig uterus myometrium).
A Ki of over 10 µM was found for `CC(C)[C@H](NC(=O)[C@H](CCCNC(=N)N)NC(=O)[C@@H](N)CC(=O)O)C(=O)N[C@@H](Cc1ccc(O)cc1)C(=O)Nc1ccc2c(c1)CN(CC(=O)N[C@@H](Cc1ccccc1)C(=O)O)C(=O)[C@H](Cc1cnc[nH]1)N2` [Angiotensin II analogue] in this work. A Ki of over 10 µM was found for `N=C(N)NCCC[C@H](NC(=O)[C@@H](N)CC(=O)O)C(=O)Nc1ccc2c(c1)CN(CC(=O)N[C@@H](Cc1cnc[nH]1)C(=O)N1CCC[C@H]1C(=O)N[C@@H](Cc1ccccc1)C(=O)O)C(=O)[C@H](Cc1ccc(O)cc1)N2` [Angiotensin II analogue] in this work. A Ki of 0.00062 µM was found for `N=C(N)NCCC[C@H](NC(=O)[C@@H](N)CC(=O)O)C(=O)N[C@H]1CSCSC[C@@H](C(=O)N[C@@H](Cc2cnc[nH]2)C(=O)N2CCC[C@H]2C(=O)N[C@@H](Cc2ccccc2)C(=O)O)NC(=O)[C@H](Cc2ccc(O)cc2)NC1=O` [Angiotensin II analogue] (H-DRCYCHPF-OH; linker 3-5 via CH2) in this work. A Ki of over 10 µM was found for `CC(C)[C@H](NC(=O)[C@H](C)NC(=O)[C@@H](N)CC(=O)O)C(=O)Nc1ccc2c(c1)CN(CC(=O)N[C@@H](Cc1cnc[nH]1)C(=O)N1CCC[C@H]1C(=O)N[C@@H](Cc1ccccc1)C(=O)O)C(=O)[C@H](Cc1ccc(O)cc1)N2` [Angiotensin II analogue] in this work.

Source: BindingDB's records for doi:10.1021/jm030921v (Uppsala University, 2004)
